Assay results: PMC12333940, “A prometabolite strategy inhibits cardiometabolic disease in an ApoE^–/– murine model of atherosclerosis” (JCI Insight, 2025)
Values joined by “and” are separate entries in the source; they are usually repeats but may differ in a detail not shown here. Identical values can stand only once.

What was measured:
ApoE^–/– mice on an HFD = assay: Histological grading and scoring of livers; assay type: in vivo, mouse; design: key to Liver Grading and Staging: Lobular inflammation (CD3+): one focus in which more than 10 periductal CD3^+ lymphocytes are found in an ×200 field; 2 to 5 instances of more than 10 periductal CD3^+ immune cells in an ×200 field; 3: Any sample exceeding this threshold; settings: for Liver Grading and Staging: Balooning Grade, Hypertrophy / Liver Grading and Staging: Lobular inflammation (CD3+) / Liver Grading and Staging: Steatosis Grade, Macro fat / NAS score (steatosis, inflammation, Ballooning): individual mice, 150 mM ad libitum for 6 weeks, HFD, liver
Procedure: For 6 weeks, mice were freely administered water, water containing 150 mM SerBut, or water containing an equimolar amount of NaBut. SerBut water was pH adjusted using 10 M NaOH to a final pH of 7.4. […] In concert, mice were fed an HFD with 42% from fat and 0.2% total cholesterol (Envigo, TD-88137) ad libitum. After 6 weeks, mice were euthanized. The lMLNs, ILNs, spleen, heart, and aorta were harvested and processed for flow cytometry analysis ([67]). The liver was harvested and part was homogenized in tissue protein extraction reagent buffer (Invitrogen, 78510) supplemented with protease inhibitor mini tablets (Thermo Fisher Scientific, PIA32955) for Western blotting and qPCR. The remaining liver was fixed with 4% paraformaldehyde and embedded in paraffin for histological analysis.
Sections (8 μm thick) were stained. Digital image files were created with an Olympus VS200 Research Slide Scanner (Olympus/Evident) with a Hamamatsu ORca-Fusion camera (Hamamatsu Photonics) at ×40 magnification. Individual images were created with the OlyVIA Viewer software (Olympus/Evident). Scoring and grading was performed by a pathologist as previously described ([48]). Immunohistochemistry grading was informed by age-matched WT controls. In age-matched WT controls, CD3^+ immune cells were seen scattered without distinct aggregate formation nor associated tissue reaction. In an ×400 field, we observed up to 25 CD3^+ immune cells scattered in an even distribution, with rare events of up to 10 periductal CD3^+ immune cells but with no associated ductal or parenchymal reaction. […] Furthermore, a score of 2 corresponds to 2 to 5 instances of more than 10 periductal CD3^+ immune cells in an ×200 field. Any sample exceeding this threshold was scored a 3.

[1] = Body weight during treatment; assay type: in vivo, ApoE^–/– mice; settings: in g (unit assumed)
From the text: SerBut water was pH adjusted using 10 M NaOH to a final pH of 7.4. […] After 6 weeks, mice were euthanized. […] The liver was harvested and part was homogenized in tissue protein extraction reagent buffer (Invitrogen, 78510) supplemented with protease inhibitor mini tablets (Thermo Fisher Scientific, PIA32955) for Western blotting and qPCR.

HDAC = tested on: HDAC; design: method as in PMID 38561491; settings: RAW 264.7 ref 28; cited from earlier work
[2] = tested on: bone marrow–derived dendritic cells (BMDCs); design: method as in PMID 38561491, PMID 27897220; settings: BMDCs ref 28, 40; cited from earlier work

Row | SMILES | CD3^+ immune cell infiltration into the livers, lobular inflammation (ApoE^–/– mice on an HFD; 6 weeks) | hepatocellular nuclear hypertrophy (ApoE^–/– mice on an HFD; 6 weeks) | Liver Grading and Staging: Balooning Grade, Hypertrophy (ApoE^–/– mice on an HFD) | Liver Grading and Staging: Lobular inflammation (CD3+) (ApoE^–/– mice on an HFD) | Liver Grading and Staging: Steatosis Grade, Macro fat (ApoE^–/– mice on an HFD) | NAS score (steatosis, inflammation, Ballooning) (ApoE^–/– mice on an HFD) | Weight ([1]; week 0, 150 mM in drinking water with HFD, individual mice) | Weight ([1]; week 2) | Weight ([1]; week 2.5) | Weight ([1]; week 5) | Weight ([1]; week 6) | liver steatosis (macrovesicular fat) score (ApoE^–/– mice on an HFD; 6 weeks) | overall summed histological liver score (ApoE^–/– mice on an HFD; 6 weeks) | HDAC inhibition activity (HDAC) | inflammatory marker expression [2]
1 | CCCC(=O)[O-].[Na+] [NaBut, sodium butyrate, reference compound] | Neither SerBut nor NaBut significantly reduced | suppressed | 2 and 1 | 1 and 2 and 3 and 0 | 1 and 2 | 4 and 5 and 6 and 3 and 2 | – | – | – | – | – | – | – | – | –
2 | CCCC(=O)OC[C@H](N)C(=O)O [SerBut, O-butyryl-L-serine] | Neither SerBut nor NaBut significantly reduced | suppressed | 2 and 1 and 0 | 1 and 0 and 2 | 0 and 2 | 3 and 2 and 6 and 1 | 18.7 and 18.3 and 20 and 18.8 and 17 and 19.2 and 18.6 and 18.9 and 20.5 and 19.6 | 20.9 and 20.5 and 20.2 and 18.7 and 20 and 20.6 and 20.3 and 21.2 | 21.2 and 20.6 and 21.6 and 19.8 and 21.4 and 21.5 and 20.7 and 21.9 | 24 and 22.2 and 21.8 and 20.2 and 21.1 and 22.4 and 21.4 and 22.7 | 23.8 and 21.9 and 22.9 and 19.2 and 21.6 and 22.7 and 21.4 and 23.1 | significantly suppressed | reduced liver pathology | maintained attenuated HDAC inhibition activity | suppressed inflammatory marker expression
